Like-named read-outs stand apart in the source and are kept apart here.

Experimental findings from EP4043444A1, “SUBSTITUTED ISOXAZOLINE DERIVATIVES” (priority 2021, dated 2022) are described below.

What all share (format): in vivo
Series [1] has as its system Boll weevil (Anthonomus grandis). Nature of the series: Boll weevil control, 96-well microtiter plates with insect diet and eggs. As to conditions: for mortality at 2500 ppm: Anthonomus grandis, 120 h, read-out: mortality (Egg and larval mortality). As to the method: For evaluating control of boll weevil, the test unit consisted of 96-well-microtiter plates containing an insect diet and 5-10 A. grandis eggs.
The compounds were formulated using a solution containing 75% v/v water and 25% v/v DMSO. Different concentrations of formulated compounds were sprayed onto the insect diet at 5µl, using a custom-built micro atomizer, at two replications.
After application, microtiter plates were incubated at about 25 + 1°C and about 75 + 5 % relative humidity for 5 days. Egg and larval mortality were then visually assessed.

For series [2], the system named is Green Peach Aphid (Myzus persicae) (mixed life stages). Nature of the series: Green Peach Aphid control through systemic means, artificial diet under artificial membrane. As to conditions: for mortality at 2500 ppm: Myzus persicae, 72 h, read-out: mortality (Aphid mortality). The text has this: For evaluating control of Green Peach Aphid through systemic means the test unit consisted of 96-well-microtiter plates containing liquid artificial diet under an artificial membrane. The compounds were formulated using a solution containing 75% v/v water and 25% v/v DMSO. Different concentrations of formulated compounds were pipetted into the aphid diet, using a custom-built pipette, at two replications. After application, 5 - 8 adult aphids were placed on the artificial membrane inside the microtiter plate wells. The aphids were then allowed to suck on the treated aphid diet and incubated at about 23 + 1°C and about 50 + 5 % relative humidity for 3 days. Aphid mortality and fecundity was then visually assessed.

For series [3], the system named is Tobacco Budworm (Heliothis virescens). Description: Tobacco Budworm control, 96-well microtiter plates with insect diet and eggs. To be noted: for mortality at 2500 ppm: Heliothis virescens, 120 h, read-out: mortality (Egg and larval mortality). As to the method: For evaluating control of Tobacco Budworm, the test unit consisted of 96-well-microtiter plates containing an insect diet and 15-25 H. virescens eggs. The compounds were formulated using a solution containing 75% v/v water and 25% v/v DMSO. Different concentrations of formulated compounds were sprayed onto the insect diet at 10µl, using a custom-built micro atomizer, at two replications. After application, microtiter plates were incubated at about 28 + 1°C and about 80 + 5 % relative humidity for 5 days. Egg and larval mortality was then visually assessed.

Series [4] deals with Yellow Fever Mosquito (Aedes aegypti). Description: whole plant or invertebrate. To be noted: 48 h, 2 days, in comparison with untreated controls, read-out: mortality (Larval mortality). As to the method:
For evaluating control of Yellow Fever Mosquito the test unit consisted of 96-well-microtiter plates containing 200µl of tap water per well and 5-15 freshly hatched A. aegypti larvae. The active compounds were formulated using a solution containing 75% (v/v) water and 25% (v/v) DMSO. Different concentrations of formulated compounds or mixtures were sprayed onto the insect diet at 2.5µl, using a custom-built micro atomizer, at two replications.
After application, microtiter plates were incubated at 28 + 1°C, 80 + 5 % RH for 2 days. Larval mortality was then visually assessed.

Setting [5] is: 2500ppm, sprayed onto insect diet, 5 days, in comparison with untreated controls.

A word on the mortality: it is the share of the test organisms that died. In the case of `O=C(NC1C[S+]([O-])C1)c1cc(NC2=NOC(c3cc(Cl)c(F)c(Cl)c3)(C(F)(F)F)C2)ccc1Cl` (stereo not drawn) [I-96, 2-chloro-5-[[5-(3,5-dichloro-4-fluoro-phenyl)-5-(trifluoromethyl)-4H-isoxazol-3-yl]amino]-N-(1-oxothietan-3-yl)benzamide], the mortality at 2500 ppm in series [1], in series [2], in series [3] and in series [4] was ≥ 75% throughout.
For `N#CC1(NC(=O)c2c(F)ccc(NC3=NOC(c4cc(Cl)cc(Cl)c4)(C(F)(F)F)C3)c2F)CC1` (stereo not drawn) [I-11, N-(1-cyanocyclopropyl)-3-[[5-(3,5-dichlorophenyl)-5-(trifluoromethyl)-4H-isoxazol-3-yl]amino]-2,6-difluoro-benzamide], the mortality at 2500 ppm in series [3] (setting [5]) and in series [4] was ≥ 75% in each case.
Take `N#Cc1c(NC2=NOC(c3cc(Cl)cc(Cl)c3)(C(F)(F)F)C2)cccc1C(=O)NC1CC1` (stereo not drawn) [I-173]: the mortality at 2500 ppm in series [3] (setting [5]) and in series [4] was ≥ 75% throughout.
On to `CC(C)(C#N)NC(=O)c1cc(NC2=NOC(c3cc(Cl)c(F)c(Cl)c3)(C(F)(F)F)C2)ccc1Cl` (stereo not drawn) [I-75, 2-chloro-N-(1-cyano-1-methyl-ethyl)-5-[[5-(3,5-dichloro-4-fluoro-phenyl)-5-(trifluoromethyl)-4H-isoxazol-3-yl]amino]benzamide], for which the mortality at 2500 ppm in series [1] and in series [3] (setting [5]) was ≥ 75% in each case.
On to “2-chloro-5-[[5-(3,5-dichloro-4-fluoro-phenyl)-5-(trifluoromethyl)-4H-isoxazol-3-yl]amino]-N-[1-(trifluoromethylsulfonyl)azetidin-3-yl]benzamide [I-99]”, for which the “mortality (Egg and larval mortality)” value in series [1] (setting [5]) and in series [3] (setting [5]) was “at least 75%” throughout. Further, in series [2] (2500 ppm, pipetted into aphid diet, 3 days, in comparison with untreated controls), the “mortality (Aphid mortality)” value is listed as “at least 75%”.
For `N#CC1(NC(=O)c2cc(NC3=NOC(c4cc(Cl)cc(Cl)c4)(C(F)(F)F)C3)ccc2OC(F)(F)F)CC1` (stereo not drawn) [I-150], the mortality at 2500 ppm in series [1], in series [2], in series [3] (setting [5]) and in series [4] was ≥ 75% throughout.
On to `O=C(Nc1ccc(F)c(NC(=O)C(F)(F)F)c1F)c1cc(NC2=NOC(c3cc(Cl)cc(Cl)c3)(C(F)(F)F)C2)ccc1Cl` (stereo not drawn) [I-8], for which the mortality at 2500 ppm in series [1], in series [2], in series [3] (setting [5]) and in series [4] was ≥ 75% in each case.
Turning to `O=C(Nc1ccc(F)cc1F)c1cc(NC2=NOC(c3cc(Cl)cc(Cl)c3)(C(F)(F)F)C2)ccc1C(F)(F)F` (stereo not drawn) [I-158], the mortality at 2500 ppm in series [1], in series [2], in series [3] (setting [5]) and in series [4] was ≥ 75% each time.
As to `O=C(NC1CN(S(=O)(=O)C(F)F)C1)c1cc(NC2=NOC(c3cc(Cl)c(F)c(Cl)c3)(C(F)(F)F)C2)ccc1Cl` (stereo not drawn) [I-98, 2-chloro-5-[[5-(3,5-dichloro-4-fluoro-phenyl)-5-(trifluoromethyl)-4H-isoxazol-3-yl]amino]-N-[1-(difluoromethylsulfonyl)azetidin-3-yl]benzamide], the mortality at 2500 ppm in series [1], in series [2], in series [3] and in series [4] was ≥ 75% throughout.
As to `N#CC1(NC(=O)c2cc(NC3=NOC(c4cc(Cl)cc(Cl)c4)(C(F)(F)F)C3)ccc2Cl)CC1` (stereo not drawn) [I-3], the mortality at 2500 ppm in series [1], in series [2], in series [3] (setting [5]) and in series [4] was ≥ 75% each time.
Regarding `O=C(N[C@@H]1CON(CC(F)(F)F)C1=O)c1cc(NC2=NOC(c3cc(Cl)c(F)c(Cl)c3)(C(F)(F)F)C2)ccc1Cl` (stereo partly drawn) [I-119, 2-chloro-5-[[5-(3,5-dichloro-4-fluoro-phenyl)-5-(trifluoromethyl)-4H-isoxazol-3-yl]amino]-N-[(4R)-3-oxo-2-(2,2,2-trifluoroethyl)isoxazolidin-4-yl]benzamide], the mortality at 2500 ppm in series [1], in series [2], in series [3] and in series [4] was ≥ 75% each time.
For the compound `O=C(CC1CC1)Nc1c(F)ccc(NC(=O)c2cc(NC3=NOC(c4cc(Cl)cc(Cl)c4)(C(F)(F)F)C3)ccc2Cl)c1F` (stereo not drawn) [I-10], the mortality at 2500 ppm in series [1], in series [3] (setting [5]) and in series [4] was ≥ 75% throughout.
With `O=C(NCC(F)(F)F)c1cc(NC2=NOC(c3cc(Cl)cc(Cl)c3)(C(F)(F)F)C2)ccc1OC(F)(F)F` (stereo not drawn) [I-179], the mortality at 2500 ppm in series [1], in series [2], in series [3] (setting [5]) and in series [4] was ≥ 75% each time.
With `CCN1OC[C@@H](NC(=O)c2ccc(NC3=NOC(c4cc(Cl)cc(Cl)c4)(C(F)(F)F)C3)cc2Cl)C1=O` (stereo partly drawn) [I-71], in series [4], the mortality at 2500 ppm is ≥ 75%.
For the compound `O=C(NC1CC1)c1cc(NC2=NOC(c3cc(Cl)cc(Cl)c3)(C(F)(F)F)C2)ccc1OC(F)(F)F` (stereo not drawn) [I-172], the mortality at 2500 ppm in series [1], in series [2], in series [3] (setting [5]) and in series [4] was ≥ 75% in each case.
Take `Cc1ccc(NC2=NOC(c3cc(Cl)cc(Cl)c3)(C(F)(F)F)C2)cc1C(=O)NCC(F)(F)F` (stereo not drawn) [I-176]: the mortality at 2500 ppm in series [1], in series [3] (setting [5]) and in series [4] was ≥ 75% throughout.
`N#CC1(NC(=O)c2cc(N(CC3CC3)C3=NOC(c4cc(Cl)cc(Cl)c4)(C(F)(F)F)C3)ccc2Cl)CC1` (stereo not drawn) [I-25, 2-chloro-N-(1-cyanocyclopropyl)-5-[cyclopropylmethyl-[5-(3,5-dichlorophenyl)-5-(trifluoromethyl)-4H-isoxazol-3-yl]amino]benzamide]: the mortality at 2500 ppm in series [1], in series [3] (setting [5]) and in series [4] was ≥ 75% in each case.
As to `COc1ccc(NC2=NOC(c3cc(Cl)cc(Cl)c3)(C(F)(F)F)C2)cc1C(=O)NC1CC1` (stereo not drawn) [I-170], the mortality at 2500 ppm in series [1], in series [3] (setting [5]) and in series [4] was ≥ 75% throughout.
Consider `CCOC(=O)N(C1=NOC(c2cc(Cl)cc(Cl)c2)(C(F)(F)F)C1)c1ccc(Cl)c(C(=O)NC2(C#N)CC2)c1` (stereo not drawn) [I-28, ethyl N-[4-chloro-3-[(1-cyanocyclopropyl)carbamoyl]phenyl]-N-[5-(3,5-dichlorophenyl)-5-(trifluoromethyl)-4H-isoxazol-3-yl]carbamate], for which the mortality at 2500 ppm in series [1], in series [3] (setting [5]) and in series [4] was ≥ 75% each time.
On to `COc1ccc(NC2=NOC(c3cc(Cl)cc(Cl)c3)(C(F)(F)F)C2)cc1C(=O)NC1(C#N)CC1` (stereo not drawn) [I-147], for which the mortality at 2500 ppm in series [1] and in series [4] was ≥ 75% each time.
Consider `N#CC1(NC(=O)c2cc(NC3=NOC(c4cc(Cl)cc(Cl)c4)(C(F)(F)F)C3)ccc2C(F)(F)F)CC1` (stereo not drawn) [I-149], for which the mortality at 2500 ppm in series [1], in series [3] (setting [5]) and in series [4] was ≥ 75% throughout.
`CCOC(=O)N(C1=NOC(c2cc(Cl)cc(Cl)c2)(C(F)(F)F)C1)c1ccc(Cl)c(C(=O)N(C(=O)OCC)C2(C#N)CC2)c1` (stereo not drawn) [I-142, ethyl N-[4-chloro-3-[(1-cyanocyclopropyl)-ethoxycarbonyl-carbamoyl]-phenyl]-N-[5-(3,5-dichlorophenyl)-5-(trifluoromethyl)-4H-isoxazol-3-yl]carbamate]: the mortality at 2500 ppm in series [1], in series [3] (setting [5]) and in series [4] was ≥ 75% in each case.
As to `O=C(Nc1ccc(F)cc1F)c1cc(NC2=NOC(c3cc(Cl)cc(Cl)c3)(C(F)(F)F)C2)ccc1OC(F)(F)F` (stereo not drawn) [I-159], the mortality at 2500 ppm in series [1], in series [3] (setting [5]) and in series [4] was ≥ 75% each time.
On to `N#CC1(NC(=O)c2cc(NC3=NOC(c4cc(Cl)cc(Cl)c4)(C(F)(F)F)C3)ccc2OC(F)F)CC1` (stereo not drawn) [I-148], for which the mortality at 2500 ppm in series [1], in series [3] (setting [5]) and in series [4] was ≥ 75% throughout.
Regarding `O=C(NCc1ccccn1)c1ccc(NC2=NOC(c3cc(Cl)cc(Cl)c3)(C(F)(F)F)C2)cc1Cl` (stereo not drawn) [I-70], the mortality at 2500 ppm in series [1], in series [3] (setting [5]) and in series [4] was ≥ 75% each time.
